Test results from US8415375B2, “2-hydroxyethyl-1H-quinolin-2-one derivatives and their azaisosteric analogues with antibacterial activity” (Actelion Pharmaceuticals Ltd., priority 2009, dated 2013).
≈ marks a conversion by molar mass, not a printed value.

What was measured:
Type in all cases: cell-based
S. aureus 29213 = assay: Bacterial growth minimal inhibitory concentration (microdilution, cation-adjusted Mueller-Hinton Broth); conditions: Staphylococcus aureus
Experimental: Minimal inhibitory concentrations (MICs; mg/l) were determined in cation-adjusted Mueller-Hinton Broth by a microdilution method following the description given in “Methods for Dilution Antimicrobial Susceptibility Tests for Bacteria that Grow Aerobically”, Approved standard, 7th ed., Clinical and Laboratory Standards Institute (CLSI) Document M7-A7, Wayne, Pa., USA, 2006. All Example compounds were tested against several Gram positive and Gram negative bacteria. Typical antibacterial test results are given in Table 1 hereafter (MIC in mg/l).

hERG K+ channel = molecular target: T1, hERG K+ channel (Homo sapiens, UniProt Q12809); assay: In vitro blocking of hERG K+ channels (QPatch automated patch-clamp, CHO-K1 cells); conditions: pH 7.4, at 10 μM, recombinant hERG in CHO-K1 cells, average block on two cells
T1 construct: host or cells: CHO-K1 (CHOhERG)
T1 sequence (Q12809 whole entry): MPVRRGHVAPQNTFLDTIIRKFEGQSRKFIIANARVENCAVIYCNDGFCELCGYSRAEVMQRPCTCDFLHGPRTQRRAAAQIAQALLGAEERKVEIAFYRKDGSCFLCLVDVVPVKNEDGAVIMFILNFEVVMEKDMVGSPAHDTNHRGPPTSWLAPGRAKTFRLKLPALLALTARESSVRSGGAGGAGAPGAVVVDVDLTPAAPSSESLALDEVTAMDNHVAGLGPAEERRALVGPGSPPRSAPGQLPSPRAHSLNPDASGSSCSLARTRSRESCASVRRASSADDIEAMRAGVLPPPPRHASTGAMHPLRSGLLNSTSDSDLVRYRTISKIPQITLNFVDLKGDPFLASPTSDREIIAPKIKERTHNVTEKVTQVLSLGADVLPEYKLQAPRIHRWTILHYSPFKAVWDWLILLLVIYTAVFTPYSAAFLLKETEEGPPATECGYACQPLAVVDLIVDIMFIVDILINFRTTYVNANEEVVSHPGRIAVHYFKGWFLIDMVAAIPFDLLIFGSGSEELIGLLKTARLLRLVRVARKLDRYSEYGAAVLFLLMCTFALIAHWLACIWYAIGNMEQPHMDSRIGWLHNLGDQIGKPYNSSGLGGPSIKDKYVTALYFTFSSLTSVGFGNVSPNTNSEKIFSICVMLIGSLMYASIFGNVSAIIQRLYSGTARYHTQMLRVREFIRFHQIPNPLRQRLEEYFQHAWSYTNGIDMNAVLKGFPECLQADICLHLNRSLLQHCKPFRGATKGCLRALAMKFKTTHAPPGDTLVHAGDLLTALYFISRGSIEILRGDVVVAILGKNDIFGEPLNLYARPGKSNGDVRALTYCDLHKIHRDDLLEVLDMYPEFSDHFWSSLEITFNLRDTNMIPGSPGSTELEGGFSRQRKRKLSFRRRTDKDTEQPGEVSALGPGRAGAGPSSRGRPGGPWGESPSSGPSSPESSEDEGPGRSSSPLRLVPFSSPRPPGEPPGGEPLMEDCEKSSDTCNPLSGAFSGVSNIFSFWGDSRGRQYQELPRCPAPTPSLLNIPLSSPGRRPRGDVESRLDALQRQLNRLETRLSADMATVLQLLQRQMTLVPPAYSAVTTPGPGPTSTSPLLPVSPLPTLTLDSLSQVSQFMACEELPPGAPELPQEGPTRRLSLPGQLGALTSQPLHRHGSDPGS
Experimental: hERG K^+ channels have been cloned from human heart and recombinant channels are stably expressed in CHO-K1 cells (CHOhERG). These cells have been purchased from bSys GmbH(CH-4052 Basel, Switzerland) and are grown in 150 mL culture flasks at 37° C. in 5% CO2. When the cells are ˜100% confluent, they are detached with 0.25% trypsin-EDTA solution and placed in the cell preparation unit of a QPatch automated patch-clamp robot (Sophion Bioscience A/S, 2750 Ballerup, Denmark).
Currents through the hERG K^+ channels (IKhERG) are elicited using the following buffer solutions and voltage protocol: • extracellular solution (in mM): [NaCl]=150; [KCl]=4; [CaCl2]=1.2; [MgCl2]=1; [HEPES]=10; pH adjusted to 7.4 with NaOH; • intracellular solution (in mM): [KCl]=140; [NaCl]=10; [MgCl2]=1; [HEPES]=10; [EGTA]=5; [Mg-ATP]=5; [Na3-GTP]=0.1; pH adjusted to 7.2 with KOH; • voltage protocol: the resting potential is −80 mV and the frequency of stimulation is 0.1 Hz. hERG K^+ currents are measured as the average current during the last 20 ms of the 500 ms pulse to −40 mV minus the average current during the last 20 ms of the 50 ms pulse to −40 mV.
After the cells have stabilized for a few minutes and the currents are steady, the amplitude of IKhERG is recorded under control conditions. Thereafter, the QPatch robot applies the test compound to the cell at the test concentration and, after 4 minutes of stimulation, the amplitude of IKhERG is recorded under test conditions. The ratio of the two amplitudes is used to define a fractional block and the average block on two cells is used to provide the effect of a given concentration (e.g. 10 μM). If, for a given test compound, a sufficient number of concentrations were tested, an apparent IC50 for inhibition of IKhERG is calculated.

S. aureus A798 = assay: Bacterial growth minimal inhibitory concentration (microdilution), S. aureus A798; conditions: Staphylococcus aureus
Experimental: Minimal inhibitory concentrations (MICs; mg/l) were determined in cation-adjusted Mueller-Hinton Broth by a microdilution method following the description given in “Methods for Dilution Antimicrobial Susceptibility Tests for Bacteria that Grow Aerobically”, Approved standard, 7th ed., Clinical and Laboratory Standards Institute (CLSI) Document M7-A7, Wayne, Pa., USA, 2006.
[drawing 16] using the experimentals methods described above for the MIC regarding S. aureus A798 bacteria and for in vitro blocking hERG K^+ channels gave the results summarised in the Table 2 hereafter.

Structure (SMILES) | MIC (S. aureus 29213) [µg/mL] | MIC (S. aureus A798) [µg/mL] | inhibition at 4 min, 10 µM (hERG K+ channel) [%]
COc1ccc2ccc(=O)n(C[C@H](O)[C@@H]3CC[C@@H](NCc4cc5c(nn4)OCCO5)CO3)c2n1 [Example 5, 1-((2S)-2-{(2S,5R)-5-[(6,7-dihydro-[1,4]dioxino[2,3-c]pyridazin-3-ylmethyl)-amino]tetrahydro-pyran-2-yl}-2-hydroxy-ethyl)-7-methoxy-1H-[1,8]naphthyridin-2-one] | 0.063 (≈ 0.134 µM) |  | 28
COc1ccc2ccc(=O)n(C[C@H](O)C3CCC(NCc4cc5c(cn4)OCCO5)CC3)c2n1 (stereo partly drawn) [Example 6, 1-((2R)-2-{4-[(2,3-dihydro-[1,4]dioxino[2,3-c]pyridin-7-ylmethyl)-amino]cyclohexyl}-2-hydroxy-ethyl)-7-methoxy-1H-[1,8]naphthyridin-2-one] | ≤ 0.031 | ≤ 0.063 | 35
COc1ccc2ncc(=O)n(C[C@H](O)[C@@H]3CC[C@@H](NCc4cc5c(cn4)OCCO5)CO3)c2c1 [Example 3, 1-((2S)-2-{(2S,5R)-5-[(2,3-dihydro-[1,4]dioxino[2,3-c]pyridin-7-ylmethyl)-amino]tetrahydro-pyran-2-yl}-2-hydroxy-ethyl)-7-methoxy-1H-quinoxalin-2-one] | ≤ 0.031 | ≤ 0.063 | 18
COc1ccc2ccc(=O)n(C[C@H](O)[C@@H]3CC[C@@H](NCc4cc5c(cn4)OCS5)CO3)c2n1 [Example 9, 1-((2S)-2-hydroxy-2-{(2S,5R)-5-[(3-oxa-1-thia-5-aza-indan-6-ylmethyl)-amino]-tetrahydro-pyran-2-yl}-ethyl)-7-methoxy-1H-[1,8]naphthyridin-2-one] | ≤ 0.031 |  | 52
COc1ccc2ccc(=O)n(C[C@H](O)[C@@H]3CC[C@@H](NCc4cc5c(cn4)OCCS5)CO3)c2n1 [Example 1, 1-((S)-2-{(2S,5R)-5-[(2,3-dihydro-4-oxa-1-thia-6-aza-naphthalen-7-ylmethyl)-amino]-tetrahydro-pyran-2-yl}-2-hydroxy-ethyl)-7-methoxy-1H-[1,8]naphthyridin-2-one] | ≤ 0.031 |  | 32
COc1ccc2ccc(=O)n(C[C@H](O)[C@@H]3CC[C@@H](NCc4cc5c(nn4)OCCS5)CO3)c2n1 [Example 8, 1-((2S)-2-{(2S,5R)-5-[(6,7-dihydro-8-oxa-5-thia-1,2-diaza-naphthalen-3-ylmethyl)-amino]-tetrahydro-pyran-2-yl}-2-hydroxy-ethyl)-7-methoxy-1H-[1,8]naphthyridin-2-one] | 0.5 (≈ 1.03 µM) |  | 6
COc1ccc2ncc(=O)n(C[C@H](O)[C@@H]3CC[C@@H](NCc4cc5c(cn4)OCCO5)CO3)c2n1 [Example 4, 4-((2S)-2-{(2S,5R)-5-[(2,3-dihydro-[1,4]dioxino[2,3-c]pyridin-7-ylmethyl)-amino]tetrahydro-pyran-2-yl}-2-hydroxy-ethyl)-6-methoxy-4H-pyrido[2,3-b]pyrazin-3-one] | ≤ 0.031 | ≤ 0.063 | 7
COc1ccc2ncc(=O)n(C[C@H](O)C3CCC(NCc4cc5c(cn4)OCCO5)CC3)c2c1 (stereo partly drawn) [Example 7, 1-((2R)-2-{4-[(2,3-dihydro-[1,4]dioxino[2,3-c]pyridin-7-ylmethyl)-amino]-cyclohexyl}-2-hydroxy-ethyl)-7-methoxy-1H-quinoxalin-2-one] | ≤ 0.031 | 0.125 (≈ 0.268 µM) | 18
COc1ccc2ccc(=O)n(C[C@H](O)[C@@H]3CC[C@@H](NCc4cc5c(cn4)OCCO5)CO3)c2n1 [Example 2, 1-((2S)-2-{(2S,5R)-5-[(2,3-dihydro-[1,4]dioxino[2,3-c]pyridin-7-ylmethyl)-amino]-tetrahydro-pyran-2-yl}-2-hydroxy-ethyl)-7-methoxy-1H-[1,8]naphthyridin-2-one] | ≤ 0.031 | ≤ 0.063 | 18

Continued, in another order:

MIC (S. aureus 29213) [µg/mL] | MIC (S. aureus A798) [µg/mL] | Structure (SMILES) | inhibition at 4 min, 10 µM (hERG K+ channel) [%]
≤ 0.031 |  | COc1ccc2ncc(=O)n(C[C@H](O)[C@@H]3CC[C@@H](NCc4cc5c(cn4)OCCS5)CO3)c2n1 [Example 11, 4-((2S)-2-{(2S,5R)-5-[(2,3-dihydro-4-oxa-1-thia-6-aza-naphthalen-7-ylmethyl)-amino]-tetrahydro-pyran-2-yl}-2-hydroxy-ethyl)-6-methoxy-4H-pyrido[2,3-b]pyrazin-3-one] | 45
0.063 (≈ 0.129 µM) |  | COc1ccc2ncc(=O)n(C[C@H](O)[C@@H]3CC[C@@H](NCc4cc5c(nn4)OCCS5)CO3)c2n1 [Example 12, 4-((2S)-2-{(2S,5R)-5-[(6,7-dihydro-8-oxa-5-thia-1,2-diaza-naphthalen-3-ylmethyl)-amino]-tetrahydro-pyran-2-yl}-2-hydroxy-ethyl)-6-methoxy-4H-pyrido[2,3-b]pyrazin-3-one] | 7
≤ 0.031 |  | COc1ccc2cc(F)c(=O)n(C[C@H](O)[C@@H]3CC[C@@H](NCc4cc5c(cn4)OCS5)CO3)c2n1 [Example 10, 3-fluoro-1-((2S)-2-hydroxy-2-{(2S,5R)-5-[(3-oxa-1-thia-5-aza-indan-6-ylmethyl)-amino]-tetrahydro-pyran-2-yl}-ethyl)-7-methoxy-1H-[1,8]naphthyridin-2-one] | 48
≤ 0.031 |  | COc1cnc2ccc(=O)n(C[C@H](O)[C@@H]3CC[C@@H](NCc4cc5c(cn4)OCCS5)CO3)c2n1 [Example 14, 5-((2S)-2-{(2S,5R)-5-[(2,3-dihydro-4-oxa-1-thia-6-aza-naphthalen-7-ylmethyl)-amino]-tetrahydro-pyran-2-yl}-2-hydroxy-ethyl)-3-methoxy-5H-pyrido[2,3-b]pyrazin-6-one] | 
0.25 (≈ 0.514 µM) |  | COc1cnc2ccc(=O)n(C[C@H](O)[C@@H]3CC[C@@H](NCc4cc5c(nn4)OCCS5)CO3)c2n1 [Example 15, 5-((S)-2-{(2S,5R)-5-[(6,7-dihydro-8-oxa-5-thia-1,2-diaza-naphthalen-3-ylmethyl)-amino]-tetrahydro-pyran-2-yl}-2-hydroxy-ethyl)-3-methoxy-5H-pyrido[2,3-b]pyrazin-6-one] | 0
0.125 (≈ 0.266 µM) |  | COc1cnc2ccc(=O)n(C[C@H](O)[C@@H]3CC[C@@H](NCc4cc5c(cn4)OCCO5)CO3)c2n1 [Example 13, 5-((2S)-2-{(2S,5R)-5-[(2,3-dihydro-[1,4]dioxino[2,3-c]pyridin-7-ylmethyl)-amino]-tetrahydro-pyran-2-yl}-2-hydroxy-ethyl)-3-methoxy-5H-pyrido[2,3-b]pyrazin-6-one] | 5
